Test results published in patent US6488938B1, “Polylactic acid scleral plug” (Santen Pharmaceutical Co., Ltd., priority 1997, dated 2002).

Experiment: Release test of ganciclovir from scleral plug in phosphate buffered solution
Type: physicochemical
Conditions: phosphate buffered solution (0.1 M, pH 7.4)
Description: The scleral plug produced in Example 1 was shaken in a phosphate buffered solution (0.1 M, pH 7.4) to release a drug (ganciclovir). The release medium was collected at predetermined intervals and replaced with a new buffer. These operations were repeated. Absorbance of the release medium at 254 nm was measured with a spectrophotometer, and an amount of the released drug was determined.

- decomposition of drug during the release test: does not decompose
Compound: Nc1nc(O)c2ncn(COC(CO)CO)c2n1 [ganciclovir]
